Laboratory results taken from PubChem BioAssay AID248 (DTP/NCI, 2004).
Toxic doses and inconclusive results are not listed. No stated cut-off is given here; in the data, active means T/C of 150% or more; inactive means T/C below 125%.

Test system: L1210 leukemia ip in BDF1 mice, survival T/C
Assay: NCI In Vivo Anticancer Drug Screen. Data for tumor model L1210 Leukemia (intraperitoneal) in B6D2F1 (BDF1) mice
Conditions: endpoint: mean survival time, higher = longer survival
Outline: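 Mice bearing the transplanted tumor received compound or vehicle. Survival of the treated group was divided by that of the vehicle-treated control group to give the ratio.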

[1] = dose: 100.0 mg/kg/injection, schedule: Q04DX003 (ip), vehicle: saline with Tween-80
[2] = dose: 200.0 mg/kg/injection, schedule: Q04DX003 (ip), vehicle: saline with Tween-80
[3] = dose: 400.0 mg/kg/injection, schedule: Q04DX003 (ip), vehicle: saline with Tween-80
[4] = dose: 100.0 mg/kg/injection, schedule: Q04DX002 (ip), vehicle: Klucel (hydroxypropylcellulose) (HPC)
[5] = dose: 100.0 mg/kg/injection, schedule: Q01DX009 (ip), vehicle: Klucel (hydroxypropylcellulose) (HPC)
[6] = dose: 200.0 mg/kg/injection, schedule: Q01DX009 (ip), vehicle: Klucel (hydroxypropylcellulose) (HPC)
[7] = dose: 400.0 mg/kg/injection, schedule: Q01DX009 (ip), vehicle: Klucel (hydroxypropylcellulose) (HPC)
[8] = dose: 100.0 mg/kg/injection, schedule: Q01DX009 (ip), vehicle: saline
[9] = dose: 100.0 mg/kg/injection, schedule: Q04DX003 (ip), vehicle: saline
[10] = dose: 200.0 mg/kg/injection, schedule: Q01DX009 (ip), vehicle: saline
[11] = dose: 200.0 mg/kg/injection, schedule: Q04DX003 (ip), vehicle: saline
[12] = dose: 400.0 mg/kg/injection, schedule: Q04DX003 (ip), vehicle: saline
[13] = dose: 100.0 mg/kg/injection, schedule: Q01DX001 (ip), vehicle: saline
[14] = dose: 200.0 mg/kg/injection, schedule: Q01DX001 (ip), vehicle: saline
[15] = dose: 100.0 mg/kg/injection, schedule: Q04DX003 (ip), vehicle: Klucel (hydroxypropylcellulose) (HPC)
[16] = dose: 400.0 mg/kg/injection, schedule: Q04DX003 (ip), vehicle: Klucel (hydroxypropylcellulose) (HPC)
[17] = dose: 100.0 mg/kg/injection, schedule: Q01DX001 (ip), vehicle: other
[18] = dose: 200.0 mg/kg/injection, schedule: Q01DX001 (ip), vehicle: other
[19] = dose: 100.0 mg/kg/injection, schedule: Q01DX009 (ip), vehicle: saline with Tween-80
[20] = dose: 50.0 mg/kg/injection, schedule: Q01DX009 (ip), vehicle: saline with Tween-80
[21] = dose: 200.0 mg/kg/injection, schedule: Q01DX009 (ip), vehicle: saline with Tween-80

Measured: T/C

CCOC(=O)C1C(O)=C(c2ccccc2)P(=O)(Cc2ccccc2)C1(C)C (stereo unspecified)
inactive: [1] 94 % of control | [2] 94 % of control | [3] 91 % of control

O=[N+]([O-])c1ccc2c(c1)-c1ccccc1C2O (stereo unspecified)
inactive: dose: 100.0 mg/kg/injection, schedule: Q01DX005 (ip), vehicle: Klucel (hydroxypropylcellulose) (HPC) 105 % of control | [4] 107 % of control | dose: 200.0 mg/kg/injection, schedule: Q01DX005 (ip), vehicle: Klucel (hydroxypropylcellulose) (HPC) 94 % of control | dose: 200.0 mg/kg/injection, schedule: Q04DX002 (ip), vehicle: Klucel (hydroxypropylcellulose) (HPC) 93 % of control | dose: 400.0 mg/kg/injection, schedule: Q01DX005 (ip), vehicle: Klucel (hydroxypropylcellulose) (HPC) 91 % of control | dose: 400.0 mg/kg/injection, schedule: Q04DX002 (ip), vehicle: Klucel (hydroxypropylcellulose) (HPC) 104 % of control

O=C(Nc1ccc(Cl)c(Cl)c1)N(CCO)Cc1ccccc1
inactive: [5] 90 % of control | [6] 92 % of control | [7] 97 % of control

CCOP(=O)(CSCC)OCC
inactive: [8] 102 % of control | [9] 94 % of control | [10] 98 % of control | [11] 100 % of control | dose: 400.0 mg/kg/injection, schedule: Q01DX009 (ip), vehicle: saline 100 % of control | [12] 92 % of control

CN(C)C1CCC2C3CC=C4CC(OC=O)CCC4(C)C3CCC21C (stereo unspecified)
inactive: dose: 9.38 mg/kg/injection, schedule: Q01DX001 (ip), vehicle: other 101 % of control | dose: 18.75 mg/kg/injection, schedule: Q01DX001 (ip), vehicle: other 101 % of control | dose: 37.5 mg/kg/injection, schedule: Q01DX001 (ip), vehicle: other 100 % of control

CC(C)(C)OC(=O)NCC(=O)O
inactive: dose: 50.0 mg/kg/injection, schedule: Q01DX009 (ip), vehicle: saline 93 % of control | dose: 75.0 mg/kg/injection, schedule: Q01DX001 (ip), vehicle: acetone 93 % of control | [8] 96 % of control | [9] 97 % of control | dose: 150.0 mg/kg/injection, schedule: Q01DX001 (ip), vehicle: acetone 99 % of control | [10] 93 % of control | [11] 106 % of control | dose: 300.0 mg/kg/injection, schedule: Q01DX001 (ip), vehicle: acetone 103 % of control

CCn1cnc2c(SC)nc(N)nc21
inactive: dose: 37.5 mg/kg/injection, schedule: Q01DX009 (ip), vehicle: Klucel (hydroxypropylcellulose) (HPC) 101 % of control | dose: 50.0 mg/kg/injection, schedule: Q04DX003 (ip), vehicle: other 101 % of control | dose: 75.0 mg/kg/injection, schedule: Q01DX009 (ip), vehicle: Klucel (hydroxypropylcellulose) (HPC) 103 % of control | dose: 100.0 mg/kg/injection, schedule: Q04DX003 (ip), vehicle: other 104 % of control | dose: 150.0 mg/kg/injection, schedule: Q01DX009 (ip), vehicle: Klucel (hydroxypropylcellulose) (HPC) 108 % of control | dose: 200.0 mg/kg/injection, schedule: Q04DX003 (ip), vehicle: other 87 % of control

Cc1cc(/C=N/NC(=O)CCCC(=O)N/N=C/c2cc(C)n(-c3ccccc3)c2C)c(C)n1-c1ccccc1
inactive: dose: 50.0 mg/kg/injection, schedule: Q01DX001 (ip), vehicle: saline 98 % of control | [13] 93 % of control | [14] 95 % of control | dose: 400.0 mg/kg/injection, schedule: Q01DX001 (ip), vehicle: saline 89 % of control

CC1CNC(=O)N1 (stereo unspecified)
inactive: [9] 102 % of control | [11] 101 % of control | dose: 222.0 mg/kg/injection, schedule: Q01DX Z (ip), vehicle: saline 97 % of control | dose: 333.0 mg/kg/injection, schedule: Q01DX Z (ip), vehicle: saline 111 % of control | [12] 96 % of control | dose: 500.0 mg/kg/injection, schedule: Q01DX Z (ip), vehicle: saline 103 % of control

NC1=NC(c2ccc(Cl)cc2)N(c2ccc(S(N)(=O)=O)cc2)C(N)=N1 (stereo unspecified)
inactive: dose: 75.0 mg/kg/injection, schedule: Q01DX001 (ip), vehicle: saline 102 % of control | dose: 150.0 mg/kg/injection, schedule: Q01DX001 (ip), vehicle: saline 96 % of control

COC1(c2ccccc2)OC(Cc2ccccc2)=NC1(C)C (stereo unspecified)
inactive: [15] 94 % of control | dose: 200.0 mg/kg/injection, schedule: Q04DX003 (ip), vehicle: Klucel (hydroxypropylcellulose) (HPC) 94 % of control | [16] 94 % of control

O=[As](O)(O)c1ccc(N=NSc2ncnc3nc[nH]c23)cc1
inactive: dose: 7.5 mg/kg/injection, schedule: Q01DX015 (ip), vehicle: carboxymethylcellulose (CMC) 112 % of control | dose: 15.0 mg/kg/injection, schedule: Q01DX015 (ip), vehicle: carboxymethylcellulose (CMC) 115 % of control

CCN(CC#CCOc1ccc(Cl)cc1)c1ccccc1
inactive: dose: 25.0 mg/kg/injection, schedule: Q04DX002 (ip), vehicle: Klucel (hydroxypropylcellulose) (HPC) 99 % of control | dose: 50.0 mg/kg/injection, schedule: Q04DX002 (ip), vehicle: Klucel (hydroxypropylcellulose) (HPC) 93 % of control | [4] 93 % of control

O=C1C=C(c2c(-c3ccccc3)[nH]c3ccccc23)C(=O)c2ccccc21
inactive: [17] 92 % of control | [18] 97 % of control

COC(=O)c1cccc([N+](=O)[O-])c1Br
inactive: dose: 50.0 mg/kg/injection, schedule: Q01DX001 (ip), vehicle: other 102 % of control | [17] 96 % of control | [18] 102 % of control | dose: 400.0 mg/kg/injection, schedule: Q01DX001 (ip), vehicle: other 100 % of control

N#CCCC(CCC#N)c1cccc(C(CCC#N)CCC#N)n1
inactive: dose: 12.5 mg/kg/injection, schedule: Q04DX003 (ip), vehicle: Klucel (hydroxypropylcellulose) (HPC) 96 % of control | dose: 25.0 mg/kg/injection, schedule: Q04DX003 (ip), vehicle: Klucel (hydroxypropylcellulose) (HPC) 95 % of control | dose: 50.0 mg/kg/injection, schedule: Q04DX003 (ip), vehicle: Klucel (hydroxypropylcellulose) (HPC) 90 % of control | [15] 96 % of control

O=C(NCCCCCCCNC(=O)Nc1ccc(C2=NCCN2)cc1)Nc1ccc(C2=NCCN2)cc1
inactive: dose: 62.0 mg/kg/injection, schedule: Q01DX Z (ip), vehicle: carboxymethylcellulose (CMC) 107 % of control | dose: 125.0 mg/kg/injection, schedule: Q01DX Z (ip), vehicle: carboxymethylcellulose (CMC) 98 % of control | dose: 250.0 mg/kg/injection, schedule: Q01DX Z (ip), vehicle: carboxymethylcellulose (CMC) 98 % of control

c1ccc(-n2nc3c(c2OCCN2CCCC2)CCCc2ccccc2-3)cc1
inactive: [19] 104 % of control

COc1cc(OC)cc(C(N)=O)c1
inactive: dose: 50.0 mg/kg/injection, schedule: Q01DX009 (ip), vehicle: Klucel (hydroxypropylcellulose) (HPC) 88 % of control | [5] 97 % of control | [15] 86 % of control | [6] 91 % of control | [16] 86 % of control

O=[N+]([O-])c1ccc(Sc2ccc([N+](=O)[O-])cc2)cc1
inactive: [20] 92 % of control | [19] 91 % of control | [21] 89 % of control

O=C1C2C3CCC(O3)C2C(=O)N1Cc1ccccc1CN1C(=O)C2C3CCC(O3)C2C1=O (stereo unspecified)
inactive: [5] 91 % of control | [6] 91 % of control | [7] 88 % of control

Cc1nc2ccccc2c(=O)n1C(C)(C)CCl
inactive: [1] 95 % of control | [2] 92 % of control | [3] 95 % of control

CC(C)(C)SC(C)(C)C
inactive: [19] 96 % of control | [21] 96 % of control | dose: 400.0 mg/kg/injection, schedule: Q01DX009 (ip), vehicle: saline with Tween-80 96 % of control

Cc1ccc(S(=O)(=O)/C=C(\I)c2ccc([N+](=O)[O-])cc2)cc1
inactive: dose: 25.0 mg/kg/injection, schedule: Q01DX009 (ip), vehicle: saline with Tween-80 96 % of control | [20] 91 % of control | [13] 97 % of control | [19] 98 % of control | [14] 95 % of control
